Paper PMC2990605 (British Journal of Cancer, 2010)
“Also recorded” adds a separate entry of the source.

Assay: Adverse events (CTCAEv3.0), worst grade per patient regardless of relation, and laboratory parameters
Type: in vivo
Method: Toxicity was evaluated according to common toxicity criteria for adverse events (CTCAEv3.0). The MTD was defined as the dose level(s) at which at least two out of six patients developed DLT.
Toxicity assessment, haematology and clinical biochemistry were performed at baseline and weekly during the study. Physical and ECOG performance status were recorded at baseline and before the next cycle.

CC(C)C[C@@H](C(=O)N[C@H](C(=O)OC1CCCC1)c1ccccc1)[C@H](O)C(=O)NO [tosedostat]
Dyspnoea, CTCAE grade 1, patients (human, in vivo, 21 days): 0 | Eosinophilic myocarditis, CTCAE grade 1, patients (human, in vivo, 21 days): 0 | Eosinophilic myocarditis, CTCAE grade 2, patients (human, in vivo, 21 days): 0 | Eosinophilic myocarditis, CTCAE grade 3, patients (human, in vivo, 21 days): 0 | Eosinophilic myocarditis, CTCAE grade 4, patients (human, in vivo, 21 days): 0 | Eosinophilic myocarditis, patients with events, % (human, in vivo, 21 days): 0% | Erythema, CTCAE grade 1, patients (human, in vivo, 21 days): 0 | Erythema, CTCAE grade 2, patients (human, in vivo, 21 days): 0 | Erythema, CTCAE grade 3, patients (human, in vivo, 21 days): 0 | Erythema, CTCAE grade 4, patients (human, in vivo, 21 days): 0 | Erythema, patients with events, % (human, in vivo, 21 days): 0% | Fatigue, CTCAE grade 1, patients (human, in vivo, 21 days): 7 | Fatigue, CTCAE grade 2, patients (human, in vivo, 21 days): 2 | Fatigue, CTCAE grade 3, patients (human, in vivo, 21 days): 1 | Fatigue, CTCAE grade 4, patients (human, in vivo, 21 days): 0 | Fatigue, patients with events, % (human, in vivo, 21 days): 45% | Gastric dilatation, CTCAE grade 1, patients (human, in vivo, 21 days): 0 | Gastric dilatation, CTCAE grade 2, patients (human, in vivo, 21 days): 0 | Gastric dilatation, CTCAE grade 3, patients (human, in vivo, 21 days): 1 | Gastric dilatation, CTCAE grade 4, patients (human, in vivo, 21 days): 0 | Gastric dilatation, patients with events, % (human, in vivo, 21 days): 5% | General physical health deterioration, CTCAE grade 1, patients (human, in vivo, 21 days): 0 | General physical health deterioration, CTCAE grade 2, patients (human, in vivo, 21 days): 0 | General physical health deterioration, CTCAE grade 3, patients (human, in vivo, 21 days): 0 | General physical health deterioration, CTCAE grade 4, patients (human, in vivo, 21 days): 0 | General physical health deterioration, patients with events, % (human, in vivo, 21 days): 0% | Hypercalcaemia, CTCAE grade 1, patients (human, in vivo, 21 days): 0 | Hypercalcaemia, CTCAE grade 2, patients (human, in vivo, 21 days): 0 | Hypercalcaemia, CTCAE grade 3, patients (human, in vivo, 21 days): 0 | Hypercalcaemia, CTCAE grade 4, patients (human, in vivo, 21 days): 0 | Hypercalcaemia, patients with events, % (human, in vivo, 21 days): 0% | Hyperglycaemia, CTCAE grade 1, patients (human, in vivo, 21 days): 0 | Hyperglycaemia, CTCAE grade 2, patients (human, in vivo, 21 days): 0 | Hyperglycaemia, CTCAE grade 3, patients (human, in vivo, 21 days): 2 | Hyperglycaemia, CTCAE grade 4, patients (human, in vivo, 21 days): 0 | Hyperglycaemia, patients with events, % (human, in vivo, 21 days): 9% | Hyperhidrosis, CTCAE grade 1, patients (human, in vivo, 21 days): 1 | Hyperhidrosis, CTCAE grade 2, patients (human, in vivo, 21 days): 0 | Hyperhidrosis, CTCAE grade 3, patients (human, in vivo, 21 days): 0 | Hyperhidrosis, CTCAE grade 4, patients (human, in vivo, 21 days): 0 | Hyperhidrosis, patients with events, % (human, in vivo, 21 days): 5% | Leukopenia, CTCAE grade 1, patients (human, in vivo, 21 days): 0 | Leukopenia, CTCAE grade 2, patients (human, in vivo, 21 days): 2 | Leukopenia, CTCAE grade 3, patients (human, in vivo, 21 days): 2 | Leukopenia, CTCAE grade 4, patients (human, in vivo, 21 days): 0 | Leukopenia, patients with events, % (human, in vivo, 21 days): 18% | Malaise, CTCAE grade 2, patients (human, in vivo, 21 days): 0 | Malaise, CTCAE grade 3, patients (human, in vivo, 21 days): 1 | Malaise, CTCAE grade 4, patients (human, in vivo, 21 days): 0 | Malaise, patients with events, % (human, in vivo, 21 days): 5% | Mucosal inflammation, CTCAE grade 1, patients (human, in vivo, 21 days): 2 | Mucosal inflammation, CTCAE grade 2, patients (human, in vivo, 21 days): 1 | Mucosal inflammation, CTCAE grade 3, patients (human, in vivo, 21 days): 0 | Mucosal inflammation, CTCAE grade 4, patients (human, in vivo, 21 days): 0 | Mucosal inflammation, patients with events, % (human, in vivo, 21 days): 14% | Myalgia, CTCAE grade 1, patients (human, in vivo, 21 days): 7 | Myalgia, CTCAE grade 2, patients (human, in vivo, 21 days): 1 | Myalgia, CTCAE grade 3, patients (human, in vivo, 21 days): 1 | Myalgia, CTCAE grade 4, patients (human, in vivo, 21 days): 0 | Myalgia, patients with events, % (human, in vivo, 21 days): 41% | Nasopharyngitis, CTCAE grade 1, patients (human, in vivo, 21 days): 2 | Nasopharyngitis, CTCAE grade 2, patients (human, in vivo, 21 days): 0 | Nasopharyngitis, CTCAE grade 3, patients (human, in vivo, 21 days): 0 | Nasopharyngitis, CTCAE grade 4, patients (human, in vivo, 21 days): 0 | Nasopharyngitis, patients with events, % (human, in vivo, 21 days): 9% | Nausea, CTCAE grade 1, patients (human, in vivo, 21 days): 4 | Nausea, CTCAE grade 2, patients (human, in vivo, 21 days): 1 | Nausea, CTCAE grade 3, patients (human, in vivo, 21 days): 0 | Nausea, CTCAE grade 4, patients (human, in vivo, 21 days): 0 | Nausea, patients with events, % (human, in vivo, 21 days): 23% | Neutropenia, CTCAE grade 1, patients (human, in vivo, 21 days): 0 | Neutropenia, CTCAE grade 2, patients (human, in vivo, 21 days): 1 | Neutropenia, CTCAE grade 3, patients (human, in vivo, 21 days): 2 | Neutropenia, CTCAE grade 4, patients (human, in vivo, 21 days): 3 | Neutropenia, patients with events, % (human, in vivo, 21 days): 27% | Oedema peripheral, CTCAE grade 1, patients (human, in vivo, 21 days): 4 | Oedema peripheral, CTCAE grade 2, patients (human, in vivo, 21 days): 1 | Oedema peripheral, CTCAE grade 3, patients (human, in vivo, 21 days): 0 | Oedema peripheral, CTCAE grade 4, patients (human, in vivo, 21 days): 0 | Oedema peripheral, patients with events, % (human, in vivo, 21 days): 23% | Oedema, CTCAE grade 1, patients (human, in vivo, 21 days): 3 | Oedema, CTCAE grade 2, patients (human, in vivo, 21 days): 0 | Oedema, CTCAE grade 3, patients (human, in vivo, 21 days): 0 | Oedema, CTCAE grade 4, patients (human, in vivo, 21 days): 0 | Oedema, patients with events, % (human, in vivo, 21 days): 14% | Peripheral sensory neuropathy, CTCAE grade 1, patients (human, in vivo, 21 days): 4 | Peripheral sensory neuropathy, CTCAE grade 2, patients (human, in vivo, 21 days): 3 | Peripheral sensory neuropathy, CTCAE grade 3, patients (human, in vivo, 21 days): 0 | Peripheral sensory neuropathy, CTCAE grade 4, patients (human, in vivo, 21 days): 0 | Peripheral sensory neuropathy, patients with events, % (human, in vivo, 21 days): 32% | Pollakiuria, CTCAE grade 1, patients (human, in vivo, 21 days): 0 | Pollakiuria, CTCAE grade 2, patients (human, in vivo, 21 days): 0 | Pollakiuria, CTCAE grade 3, patients (human, in vivo, 21 days): 0 | Pollakiuria, CTCAE grade 4, patients (human, in vivo, 21 days): 0 | Pollakiuria, patients with events, % (human, in vivo, 21 days): 0% | Pruritus, CTCAE grade 1, patients (human, in vivo, 21 days): 3 | Pruritus, CTCAE grade 2, patients (human, in vivo, 21 days): 0 | Pruritus, CTCAE grade 3, patients (human, in vivo, 21 days): 1 | Pruritus, CTCAE grade 4, patients (human, in vivo, 21 days): 0 | Pruritus, patients with events, % (human, in vivo, 21 days): 18% | Pyrexia, CTCAE grade 1, patients (human, in vivo, 21 days): 1 | Pyrexia, CTCAE grade 2, patients (human, in vivo, 21 days): 1 | Pyrexia, CTCAE grade 3, patients (human, in vivo, 21 days): 0 | Pyrexia, CTCAE grade 4, patients (human, in vivo, 21 days): 0 | Pyrexia, patients with events, % (human, in vivo, 21 days): 9% | Rash, CTCAE grade 1, patients (human, in vivo, 21 days): 3 | Rash, CTCAE grade 2, patients (human, in vivo, 21 days): 1 | Rash, CTCAE grade 3, patients (human, in vivo, 21 days): 1 | Rash, CTCAE grade 4, patients (human, in vivo, 21 days): 0 | Rash, patients with events, % (human, in vivo, 21 days): 23% | Spinal cord compression, CTCAE grade 1, patients (human, in vivo, 21 days): 0 | Spinal cord compression, CTCAE grade 2, patients (human, in vivo, 21 days): 0 | Spinal cord compression, CTCAE grade 3, patients (human, in vivo, 21 days): 0 | Spinal cord compression, CTCAE grade 4, patients (human, in vivo, 21 days): 0 | Spinal cord compression, patients with events, % (human, in vivo, 21 days): 0% | Tumour pain, CTCAE grade 1, patients (human, in vivo, 21 days): 0 | Tumour pain, CTCAE grade 2, patients (human, in vivo, 21 days): 0 | Tumour pain, CTCAE grade 3, patients (human, in vivo, 21 days): 1 | Tumour pain, CTCAE grade 4, patients (human, in vivo, 21 days): 0 | Tumour pain, patients with events, % (human, in vivo, 21 days): 5% | Urinary tract infection, CTCAE grade 1, patients (human, in vivo, 21 days): 0 | Urinary tract infection, CTCAE grade 2, patients (human, in vivo, 21 days): 0 | Urinary tract infection, CTCAE grade 3, patients (human, in vivo, 21 days): 1 | Urinary tract infection, CTCAE grade 4, patients (human, in vivo, 21 days): 0 | Urinary tract infection, patients with events, % (human, in vivo, 21 days): 5% | Vomiting, CTCAE grade 1, patients (human, in vivo, 21 days): 3 | Vomiting, CTCAE grade 2, patients (human, in vivo, 21 days): 1 | Vomiting, CTCAE grade 3, patients (human, in vivo, 21 days): 0 | Vomiting, CTCAE grade 4, patients (human, in vivo, 21 days): 0 | Vomiting, patients with events, % (human, in vivo, 21 days): 18% | γ-glutamyltransferase increased, CTCAE grade 1, patients (human, in vivo, 21 days): 0 | γ-glutamyltransferase increased, CTCAE grade 2, patients (human, in vivo, 21 days): 0 | γ-glutamyltransferase increased, CTCAE grade 3, patients (human, in vivo, 21 days): 1 | γ-glutamyltransferase increased, CTCAE grade 4, patients (human, in vivo, 21 days): 0 | γ-glutamyltransferase increased, patients with events, % (human, in vivo, 21 days): 5% | death on study, cause (one patient, cohort 5, 6 days after third paclitaxel infusion, 2 days after last tosedostat dose): eosinophilic myocarditis, possibly related to study medication; also recorded: eosinophilic myocarditis, considered possibly related to paclitaxel, tosedostat or other medications
